Data taken from the SangsterLogP compilation.

Assay: method code SF, from Hansch, C. & Leo, A. (1987). Log P database [Dataset]. Pomona College Medicinal Chemistry Project.

SMILES | logP | also measured
O=C(O)c1ccco1 | 0.64 | –
O=C1C=CC(=NCl)C=C1 | 1.26 | –
CCn1c(C)c(N(C)C)c(=O)n(-c2ccccc2)c1=O | – | logD (pH 7.4): 1.8
O=Cc1cccc(Oc2ccccc2)c1 | 3.38 | –
NNC(=O)c1ccccc1 | 0.21 | –
Cc1cccc(C)c1[N+](=O)[O-] | 2.95 | –
CCOP(=O)(OCC)OCC | 0.8 | –
COc1cccc(OC(=O)N(C)C)c1 | 1.6 | –
CSc1cccc(NC(C)=O)c1 | 2.14 | –
CNP(=O)(OC)Oc1ccc(SC)cc1 (configuration not stated) | 1.81 | –
Cn1c(N)cc2ccccc21 | – | logD (pH 8.0): 1.72
CCC(=O)OCCOc1ccc(C=NO)cc1OC | 1.52 | –
Nc1ccc([N+](=O)[O-])cc1N | 0.88 | –
COc1cccc([N+]([O-])=NC#N)c1 | 2.24 | –
O=[N+]([O-])c1ccc(C(F)(F)F)cc1 | 2.55 | –
OCCOc1ccccc1 | 1.16 | –
c1nnn[nH]1 | -0.6 | –
Cc1c(N(C)C)c(=O)n(-c2ccccc2)c(=O)n1C | – | logD (pH 7.4): 1.3
CC(=O)c1ccc(N2C(N)=NC(N)=NC2(C)C)cc1 | – | logD (pH 13.0): -0.04
COc1cccc2c1C(=O)c1c(O)c3c(c(O)c1C2=O)C[C@@](O)(C(=O)CO)C[C@@H]3O | 2.74 | –

SMILES | logP | also measured
CC1(C)N=C(N)N=C(N)N1c1ccc(OCC(=O)N2CCOCC2)cc1 | – | logD (pH 13.0): -1.18
NN=C(c1ccccc1)c1ccccc1 | 2.79 | –
CNC(=O)CSP(=S)(OC)OC | 0.8 | –
CC(C)(C)C(=O)Nc1ccc(Cl)c(Cl)c1 | 3.88 | –
CCOS(=O)(=O)OCC | 1.14 | –
CC1(C)N=C(N)N=C(N)N1c1ccc(Br)cc1 | – | logD (pH 13.0): 1.09
CC(=O)OC(OC(C)=O)c1ccc([N+](=O)[O-])o1 | – | logD (pH 8.0): 1.06
COP(=O)(NCC(C)C)Oc1cc(Cl)c(Cl)cc1Cl (configuration not stated) | 3.86 | –
COc1cc(C=O)ccc1OCCOC(=O)c1ccccc1Cl | 3.21 | –
CN(C)CCCCc1cccnc1 | – | logD (pH 11.0): 1.49
Cc1oc2cc(OCC#N)ccc2c(=O)c1C | 1.96 | –
ON=C(c1ccccc1)c1ccccc1 | 3.2 | –
CCC1OC(=O)C(C)C(OC2CC(C)(OC)C(O)C(C)O2)C(C)C(OC2OC(C)CC(N(C)C)C2O)C2(C)CC(C)C3(OC(=O)OC(C3C)C1(C)O)O2 (configuration not stated) | 3.11 | –
Cc1nnc(SCc2ccccc2)o1 | 1.74 | –
N#CN=[N+]([O-])c1ccc(Br)cc1 | 2.5 | –
Cc1oc2ccccc2c(=O)c1C | 2.31 | –
O=C(Nc1ccc(Cl)c(Cl)c1)C1CCCCC1 | 4.72 | –
COc1ccccc1C=CC(=O)OCCOc1ccc(C=O)cc1OC | 3.65 | –
O=C(O)CSc1ccccc1 | – | logD (pH 1.0): 1.88
O=C(O)Cc1ccc(S(=O)(=O)F)cc1 | 1.86 | –

The next lines start with results.

logP | SMILES | also measured
2.58 | C[C@@H]1C[C@H]2[C@@H]3C[C@H](F)C4=CC(=O)C(Cl)=C[C@]4(C)[C@@]3(F)[C@@H](O)C[C@]2(C)[C@@]1(O)C(=O)CO | –
-0.68 | CN(C(=O)CCOS(C)(=O)=O)c1ccc(S(=O)(=O)N(C)C)cc1 | –
0.65 | CC1=Nc2ccc([N+](=O)[O-])cc2S(=O)(=O)N1 | –
0.96 | COc1ccc(C(=O)N(C)C)cc1 | –
0.85 | O=C(O)COc1ccccc1O | –
2.33 | CCOC(=O)c1cccs1 | –
0.63 | CC1=Nc2cc(N)c(Cl)cc2S(=O)(=O)N1 | –
3.67 | CON(C)C(=O)Nc1ccc2c(c1)Cc1ccccc1-2 | –
-1.38 | O=c1cc[nH]cn1 | –
0.56 | NS(=O)(=O)c1ccc(C(=O)c2ccncc2)cc1 | –
1.61 | CC(=O)Nc1cccc(/N=N/N(C)C)c1 | –
-0.5 | NNC(=O)c1ccncc1 | –
2.27 | CCOCCOC(=O)C(C#N)=C(CC)Nc1ccc(N)cc1 | –
4.35 | CCCCCCOC(=O)c1ccc(O)cc1 | –
3.1 | O=C(O)COc1ccc(Cl)c(I)c1 | –
2.41 | CCOC(=O)C(=Cc1ccc(OC)cc1OC)C(C)=O | –
0.55 | CN(C)C(=O)c1ccsc1 | –
-0.47 | NC(=O)c1ncn2c(=O)n(CCCl)nnc12 | –
4.11 | CC(C)(C)c1ccccc1 | –

logP | SMILES | also measured
2.06 | O=S1(=O)NC(C2CC3C=CC2C3)=Nc2ccccc21 (configuration not stated) | –
1.65 | NC(=O)c1cccc(Br)c1 | –
-2.29 | OC[C@@H](O)[C@@H](O)CO | –
0.93 | CC(=O)c1ccc[nH]1 | –
2.38 | COC(=O)c1ccccc1Cl | –
3.1 | O=C(O)c1ccc(C(F)(F)F)cc1 | –
1.95 | OC[C@@H]1C[C@H]1c1ccccc1 | –
1.43 | CCOC(=O)c1ccncc1 | –
1.65 | O=S1(=O)NC(C(F)(F)F)=Nc2cc(Cl)ccc21 | –
1.99 | CC(C)(C)C(=O)Nc1ccccc1 | –
3.9 | CCC(C)NC(=O)C=C(Br)c1ccc(Cl)cc1 (configuration not stated) | –
1.98 | Clc1ccc2[nH]c(CCCCCc3nc4cc(Cl)ccc4[nH]3)nc2c1 | –
3.83 | O=C(Nc1ccc(Cl)c(Cl)c1)C1CC1 | –
3.99 | O=c1c2ccccc2sc2ccccc12 | –
3.42 | Cc1ccccc1Cl | –
2.84 | COc1cc(C=NOC(=O)c2ccccc2OC)ccc1OCCO | –
1.35 | CNC(=S)NCc1ccccc1 | –
1.82 | CC(=O)Oc1cccc([N+](=O)[O-])c1 | –
